Measured values: patent publication US5858327A, “Hydrazino-type N2 S2 radionuclide chelating compounds” (Resolutions Pharmaceuticals, Inc., priority 1996, dated 1999)
Structures can show the parent of a compound that is named as a salt.

Experiment: In vivo distribution of 99mTc-labelled chelators in rats
Set-up: species or system male Wistar rats
Conditions: for GI tract accumulation/localization (share of the dose) / dose remaining in the blood / accumulation in the kidney / localization in urine: male Wistar rats; for GI tract accumulation/localization (share of the dose): 99mTc-labelled chelator 200 μL (200 μCi) i.v. tail vein, organs counted after 120 min images; for dose remaining in the blood / accumulation in the kidney / localization in urine: 99mTc-labelled chelator i.v. tail vein; for dose remaining in the blood: after 120 min images, blood volume assumed 8% body weight; for accumulation in the kidney: examples 1 and 2 approximately equal
Description: Approximately 1 mg of each chelator was dissolved in 200 μL saline or 200 μL ethanol:water (1:1) in a tube. To the tube was added 100-300 μL sodium ^99m Tc-pertechnetate (5-15 mCi), 100 μL phosphate buffer (0.25M, pH 7.4), and 200 μL of a solution containing 50 μg stannous chloride dihydrate and 40 mg sodium tartrate dihydrate. The tube was capped tightly and placed in a boiling water bath for 10 minutes.
After cooling, the reaction mixture was loaded onto a C-18 solid-phase extraction cartridge (Sep-Pak) which had been activated with 5 mL methanol and 5 mL 1 mM HCl. The cartridge was washed with 5 mM HCl and the eluate was collected in a test tube. The cartridge was then dried by forcing air through it. The product was eluted with 2 mL ethanol:water (1:1) and collected in a separate tube. The cartridge was placed in another tube and the three tubes were assayed in a radionuclide dose calibrator (ionization chamber). The yield was calculated as the activity in the ethanol:water eluate divided by the total activity in the three tubes under the assumption that the desired product was relatively lipophilic. A less lipophilic chelator would elute partially in the acid wash and the apparent yield would be low.
Distribution within rats of selected chelators and a reference chelator were determined using established protocols. Briefly, male Wistar rats (Charles River, 200 g) were anaesthetized with somnitol (40 to 50 mg/kg) and 200 μL of the labelled chelator (ie. 200 μCi) was injected intravenously via the tail vein. Serial whole-body scintigrams were acquired for first 10 minutes, After further images were obtained at 60 and 120 minutes, the rat was killed with anaesthesia and samples of organs (blood, heart, lung, liver, spleen, kidney, muscle, GI tract) were weighed and counted in either a well-type gamma counter or in a gamma dose calibrator. Dose calculations were made based on the assumption that rats weighed 200 g and that the blood volume constituted 8% body weight. All results were corrected for the residual dose in the tail.

GI tract excretion (in words) (in comparison with the N2S2 reference chelator, rats, i.v.)	GI tract accumulation/localization (share of the dose)	accumulation in the kidney	localization in urine	SMILES	dose remaining in the blood	clearance from the blood (and other tissues), in words (rats, i.v.)	route of elimination (rats, i.v.)
remarkably low	about 9%	7-14%		O=C(CSC(=O)c1ccccc1)NNC(=O)NNC(=O)CSC(=O)c1ccccc1 [Example 1, N,N'-bis(S-benzoylmercaptoacetyl)-carbohydrazide]	about 14%		
	30%	7-14%	20%	N=C(NNC(=O)CSC(=O)c1ccccc1)NNC(=O)CSC(=O)c1ccccc1 [Example 2, N,N'-bis-(S-benzoylmercaptoacetyl)-1,3-diaminoguanidine hydrochloride]	about 10%		
	50%		25%	O=C(CNC(=O)CSC(=O)c1ccccc1)CNC(=O)CSC(=O)c1ccccc1 [Example 3, N,N'-bis-(S-benzoylmercaptoacetyl)-1,3-diaminoacetone]	3%	fastest clearance from the blood and other tissues	mainly eliminated through the liver and GI tract
